Test results reported in article PMC8815882, “Screening the pandemic response box identified benzimidazole carbamates, Olorofim and ravuconazole as promising drug candidates for the treatment of eumycetoma” (PLoS Neglected Tropical Diseases, 2022).
Where two headings read alike, the source gives them in different places.

Test system: M. mycetomatis genome strain MM55
Assay: CLSI M38-A2 based in vitro susceptibility screening (XTT or resazurin), growth at fixed concentration
Assay type: cell-based, Madurella mycetomatis
Details: Madurella mycetomatis
[1] = 25 uM, replicate A, read-out: Percentage survival at 25um, 25 um A
[2] = 25 uM, replicate B, read-out: Percentage survival at 25um, 25 uM B
[3] = 25 uM, replicate C, read-out: Percentage survival at 25um, 25 uM C
[4] = 25 uM, mean of replicates, MM55, read-out: Percentage survival at 25um, 25 uM mean
[5] = 25 uM, replicate A, MM55, read-out: Percentage survival at 25um, 25 um A
[6] = 25 uM, replicate B, MM55, read-out: Percentage survival at 25um, 25 uM B
[7] = 25 uM, replicate C, MM55, read-out: Percentage survival at 25um, 25 uM C
[8] = 100 uM, mean of replicates, MM55, read-out: Percentage survival at 100um, 100 uM mean
[9] = 100 uM, replicate 1, MM55, read-out: Percentage survival at 100um, 100 uM A
[10] = 100 uM, replicate 2, MM55, read-out: Percentage survival at 100um, 100 uM A
[11] = 100 uM, replicate 3, MM55, read-out: Percentage survival at 100um, 100 uM A
[12] = 25 uM, mean of three replicates, read-out: Percentage survival at 25um, 25 uM mean
[13] = 100 uM, first replicate column, read-out: Percentage survival at 100um, 100 uM A
[14] = 100 uM, mean of three replicates, read-out: Percentage survival at 100um, 100 uM mean
[15] = 100 uM, second replicate column, read-out: Percentage survival at 100um, 100 uM A
[16] = 100 uM, third replicate column, read-out: Percentage survival at 100um, 100 uM A

| SMILES | activity at 25 µM [1] [%] | activity at 25 µM [2] [%] | activity at 25 µM [3] [%] | activity at 25 µM [4] [%] | activity at 25 µM [5] [%] | activity at 25 µM [6] [%] | activity at 25 µM [7] [%] | activity at 100 µM [8] [%] | activity at 100 µM [9] [%] | activity at 100 µM [10] [%] | activity at 100 µM [11] [%] | activity at 25 µM [12] [%] | activity at 100 µM [14] [%] | further results |
| --- | --- | --- | --- | --- | --- | --- | --- | --- | --- | --- | --- | --- | --- | --- |
| CC1CCc2c(N3CCC(O)CC3)c(F)cc3c(=O)c(C(=O)O)cn1c23 (centres unmarked) [MMV637659] | 77.6 | 95.3 | 93 |  |  |  |  |  |  |  |  |  |  | activity at 25 µM (25 uM, mean of replicates, read-out: Percentage survival at 25um, 25 uM mean): 88.6%; activity at 100 µM (100 uM, mean of replicates, read-out: Percentage survival at 100um, 100 uM mean): 77.8%; activity at 100 µM (100 uM, replicate 1, read-out: Percentage survival at 100um, 100 uM A): 65.4%; activity at 100 µM (100 uM, replicate 2, read-out: Percentage survival at 100um, 100 uM A): 81.1%; activity at 100 µM (100 uM, replicate 3, read-out: Percentage survival at 100um, 100 uM A): 86.9% |
| CC(N)C12CC3CC(CC(C3)C1)C2 (centres unmarked) [MMV637855] |  |  |  | 86 | 78.5 | 82.6 | 96.9 | 60.7 | 60.1 | 57.9 | 64 |  |  |  |
| CC(C)(C)NC(=O)[C@@H]1C[C@@H]2CCCC[C@@H]2CN1C[C@@H](O)[C@H](Cc1ccccc1)NC(=O)[C@H](CC(N)=O)NC(=O)c1ccc2ccccc2n1 [MMV637879] | 98.2 | 97.6 | 81.5 |  |  |  |  |  |  |  |  | 92.5 | 93.3 | activity at 100 µM [13]: 102%; activity at 100 µM [15]: 95.3%; activity at 100 µM [16]: 82.8% |
| CC1(C)[C@H](C(=O)O)N2C(=O)C[C@H]2S1(=O)=O [MMV637945] |  |  |  |  |  |  |  |  |  |  |  |  |  | activity at 25 µM (25 uM, replicate A, M. mycetomatis MM55, read-out: Percentage survival at 25um, 25 um A): 97.1%; activity at 100 µM (100 uM, mean of three, M. mycetomatis MM55, read-out: Percentage survival at 100um, 100 uM mean): 98.9%; activity at 100 µM (100 uM, replicate 1, M. mycetomatis MM55, read-out: Percentage survival at 100um, 100 uM A (first replicate column)): 99.5%; activity at 100 µM (100 uM, replicate 2, M. mycetomatis MM55, read-out: Percentage survival at 100um, 100 uM A (second replicate column)): 112%; activity at 100 µM (100 uM, replicate 3, M. mycetomatis MM55, read-out: Percentage survival at 100um, 100 uM A (third replicate column)): 85.4%; activity at 25 µM (read-out: Percentage survival at 25um, 25 uM B): 95.1%; activity at 25 µM (read-out: Percentage survival at 25um, 25 uM C): 84.6%; activity at 25 µM (read-out: Percentage survival at 25um, 25 uM mean): 92.3% |
| C=C(C)[C@@H]1CC[C@]2(C(=O)O)CC[C@]3(C)[C@H](CC[C@@H]4[C@@]5(C)CC[C@H](O)C(C)(C)[C@@H]5CC[C@]43C)[C@@H]12 [MMV638198] |  |  |  | 78.4 | 65.7 | 92.3 | 77.1 | 79.4 | 83.2 | 80.2 | 74.7 |  |  |  |
| COC1CC2CCC(C)C(O)(O2)C(=O)C(=O)N2CCCCC2C(=O)OC(C(C)CC2CCC(OCCO)C(OC)C2)CC(=O)C(C)/C=C(\C)C(O)C(OC)C(=O)C(C)CC(C)/C=C/C=C/C=C/1C (centres unmarked) [MMV639951] | 64.2 | 62.2 | 57.7 |  |  |  |  |  |  |  |  | 61.4 | 51.7 | activity at 100 µM [13]: 69.2%; activity at 100 µM [15]: 46.7%; activity at 100 µM [16]: 39.4% |
| O=C(O)c1ccc(-n2nc(-c3ccccc3O)nc2-c2ccccc2O)cc1 [MMV640014] | 94.6 | 88.3 | 78 |  |  |  |  |  |  |  |  |  |  | activity at 25 µM (25 uM, mean, read-out: Percentage survival at 25um, 25 uM mean): 87%; activity at 100 µM (100 uM, mean, read-out: Percentage survival at 100um, 100 uM mean): 78.4%; activity at 100 µM (100 uM, replicate (first column), read-out: Percentage survival at 100um, 100 uM A): 85.5%; activity at 100 µM (100 uM, replicate (second column), read-out: Percentage survival at 100um, 100 uM A): 73.2%; activity at 100 µM (100 uM, replicate (third column), read-out: Percentage survival at 100um, 100 uM A): 76.5% |
| Cn1cncc1[C@@](N)(c1ccc(Cl)cc1)c1ccc2c(c1)c(-c1cccc(Cl)c1)cc(=O)n2C [MMV658803] |  |  |  | 43.8 | 0.79 | 64.2 | 66.2 | 36.3 | 13.3 | 45 | 50.7 |  |  |  |
| CCc1nc2ccc(Cl)cn2c1C(=O)NCc1ccc(N2CCC(c3ccc(OC(F)(F)F)cc3)CC2)cc1 [MMV687696] | 95 | 93.8 | 91.9 |  |  |  |  |  |  |  |  | 93.6 | 84.8 | activity at 100 µM (100 uM, replicate 1, read-out: Percentage survival at 100um, 100 uM A (first replicate column)): 87.8%; Percent fungal survival at 100 µM (100 uM, replicate 2, read-out: Percentage survival at 100um, 100 uM A (second replicate column)): 86.4%; activity at 100 µM (100 uM, replicate 3, read-out: Percentage survival at 100um, 100 uM A (third replicate column)): 80.3% |
| C[C@H]1COc2c(N3CCN(C)CC3)c(F)cc3c(=O)c(C(=O)O)cn1c23 [MMV687798] |  |  |  | 96.2 | 101 | 105 | 82.9 | 91.4 | 97.4 | 91.1 | 85.7 |  |  |  |
